Test results as given in paper PMC9410265, “Citrate Regulates the Saccharomyces cerevisiae Mitochondrial GDP/GTP Carrier (Ggc1p) by Triggering Unidirectional Transport of GTP” (Journal of Fungi, 2022).

What was measured:
[1] = target: T1, Ggc1p (yeast mitochondrial GDP/GTP carrier) (Saccharomyces cerevisiae, UniProt P38988); experiment: [[…]-3H]GTP uptake into effector-loaded proteoliposomes; assay type: biochemical; conditions: activator of GTP uniport; 5 mM internal compound; 1 μM external [8-3H]GTP; pH 7.0, 25 °C
T1 construct: gene GGC1; E. coli BL21(DE3) inclusion bodies, sarkosyl-solubilized, reconstituted in liposomes; calculated 33,215 Da with initiator Met
T1 sequence (P38988 1-300): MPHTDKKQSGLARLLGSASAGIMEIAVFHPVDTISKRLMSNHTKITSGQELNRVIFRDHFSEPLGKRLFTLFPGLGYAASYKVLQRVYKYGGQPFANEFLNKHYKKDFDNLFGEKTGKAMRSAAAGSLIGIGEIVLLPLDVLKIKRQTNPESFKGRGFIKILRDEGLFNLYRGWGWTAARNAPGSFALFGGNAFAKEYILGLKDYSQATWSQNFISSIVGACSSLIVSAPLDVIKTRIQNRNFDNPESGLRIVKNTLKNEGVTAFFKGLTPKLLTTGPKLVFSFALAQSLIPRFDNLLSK

[2] = target: T1, Ggc1p (yeast mitochondrial GDP/GTP carrier); experiment: inhibition of [[…]-3H]GTP uptake into proteoliposomes; assay type: biochemical; conditions: GTP/GTP exchange (5 mM internal GTP) and citrate-induced uptake (5 mM internal citrate); 1 μM [8-3H]GTP; pH 7.0, 25 °C
[3] = target: T1, Ggc1p (yeast mitochondrial GDP/GTP carrier); experiment: as above; assay type: biochemical; conditions: citrate-induced GTP uptake (5 mM internal citrate); 1 μM [8-3H]GTP; pH 7.0, 25 °C
[4] = target: T1, Ggc1p (yeast mitochondrial GDP/GTP carrier); experiment: radiolabelled GTP uptake into proteoliposomes, activation by internal citrate; assay type: biochemical; conditions: activator (trans-activation of GTP uniport), not transported; allosteric, site distinct from GTP site; 10 μM external [8-3H]GTP; pH 7.0, 25 °C
[5] = target: T2, Ggc1p (yeast mitochondrial GDP/GTP carrier) (Saccharomyces cerevisiae, UniProt P38988, K154A); experiment: radiolabelled GTP uptake into citrate-loaded proteoliposomes, […] s; assay type: biochemical; conditions: activator; 5 mM internal citrate; 1 μM external [8-3H]GTP; pH 7.0, 25 °C
T2 construct: gene GGC1; E. coli BL21(DE3) inclusion bodies, sarkosyl-solubilized, reconstituted in liposomes; calculated 33,215 Da with initiator Met
T2 sequence (P38988 1-300 K154A): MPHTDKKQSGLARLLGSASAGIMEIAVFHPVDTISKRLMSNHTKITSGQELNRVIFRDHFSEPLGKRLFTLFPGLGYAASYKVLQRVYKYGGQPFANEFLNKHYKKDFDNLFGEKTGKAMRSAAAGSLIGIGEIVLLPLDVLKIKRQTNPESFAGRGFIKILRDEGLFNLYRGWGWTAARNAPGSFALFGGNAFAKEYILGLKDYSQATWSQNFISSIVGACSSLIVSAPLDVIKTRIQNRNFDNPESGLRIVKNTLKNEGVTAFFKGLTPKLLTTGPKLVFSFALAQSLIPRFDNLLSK

[6] = target: T3, Ggc1p (yeast mitochondrial GDP/GTP carrier) (Saccharomyces cerevisiae, UniProt P38988, R156A); experiment: as above; assay type: biochemical; conditions: activator; 5 mM internal citrate; 1 μM external [8-3H]GTP; pH 7.0, 25 °C
T3 construct: gene GGC1; E. coli BL21(DE3) inclusion bodies, sarkosyl-solubilized, reconstituted in liposomes; calculated 33,215 Da with initiator Met
T3 sequence (P38988 1-300 R156A): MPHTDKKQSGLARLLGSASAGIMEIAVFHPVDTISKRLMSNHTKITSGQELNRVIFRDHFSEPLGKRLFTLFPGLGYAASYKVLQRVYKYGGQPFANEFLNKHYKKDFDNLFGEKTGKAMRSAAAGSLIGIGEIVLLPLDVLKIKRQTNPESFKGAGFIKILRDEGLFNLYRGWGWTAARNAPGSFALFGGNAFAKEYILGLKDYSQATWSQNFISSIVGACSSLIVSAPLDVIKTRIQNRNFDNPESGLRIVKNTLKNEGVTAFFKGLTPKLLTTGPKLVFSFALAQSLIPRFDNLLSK

[7] = substrate: Nc1nc2c(ncn2[C@@H]2O[C@H](COP(=O)(O)OP(=O)(O)OP(=O)(O)O)[C@@H](O)[C@H]2O)c(=O)[nH]1; experiment: purified protein; assay type: biochemical, Saccharomyces cerevisiae; conditions: citrate-induced GTP uniport, internal citrate 0.15-0.6 mM, external 0.25-1 μM [8-3H]GTP, pH 7.0, 25 °C, labelled compound

O=C(O)/C=C(/CC(=O)O)C(=O)O [cis-aconitate]
[8-3H]GTP uptake into effector-loaded proteoliposomes [1]: GTP uptake was also observed with proteoliposomes containing citrate, isocitrate, cis-aconitate

Cc1cc(C2(c3cc(C)c(O)c(Br)c3)OS(=O)(=O)c3ccccc32)cc(Br)c1O [bromocresol purple]
% inhibition at 0.3 mM [2]: tannic acid and bromocresol purple (inhibitors of the mitochondrial glutamate carriers)

CO[C@H](C/C=C\C=C\CC/C=C/C[C@H](C)/C=C/C(=C\C(=O)O)CC(=O)O)/C(C)=C\C=C(/C)C(=O)O [bongkrekic acid]
% inhibition at 0.1 mM [3]: CIGU was partially inhibited by p-hydroxymercuribenzoate, carboxyatractyloside and bongkrekate

O=C(O)CC(O)(CC(=O)O)C(=O)O [citrate]
EC50 [4]: 510 µM | % of wild-type uptake [5]: CIGU in K154A and R156A mutants were markedly decreased with respect to that of wild-type | % of wild-type uptake [6]: CIGU in K154A and R156A mutants were markedly decreased with respect to that of wild-type

O=C(O)C[C@H](C(=O)O)[C@@H](O)C(=O)O [isocitrate]
[8-3H]GTP uptake into effector-loaded proteoliposomes [1]: GTP uptake was also observed with proteoliposomes containing citrate, isocitrate, cis-aconitate

B1: Ggc1p (yeast mitochondrial GDP/GTP carrier) (Saccharomyces cerevisiae S288C) (protein)
chain: MPHTDKKQSGLARLLGSASAGIMEIAVFHPVDTISKRLMSNHTKITSGQELNRVIFRDHFSEPLGKRLFTLFPGLGYAASYKVLQRVYKYGGQPFANEFLNKHYKKDFDNLFGEKTGKAMRSAAAGSLIGIGEIVLLPLDVLKIKRQTNPESFKGRGFIKILRDEGLFNLYRGWGWTAARNAPGSFALFGGNAFAKEYILGLKDYSQATWSQNFISSIVGACSSLIVSAPLDVIKTRIQNRNFDNPESGLRIVKNTLKNEGVTAFFKGLTPKLLTTGPKLVFSFALAQSLIPRFDNLLSK
notes: E. coli BL21(DE3) inclusion bodies, sarkosyl-solubilized, reconstituted in liposomes; calculated 33,215 Da with initiator Met
Km [7]: 0.72 µM
